Experimental findings from US12398110B2, “Second generation inhibitors of mitochondrial permeability transition pore with improved plasma stability” (Oregon Health & Science University, priority 2019, dated 2025) are described below.

As usually defined, the EC50 is the concentration needed to bring the measured effect to its halfway point.

Data set [1] concerns mtPTP. As to the kind of experiment: Ca2+ retention capacity (CRC) of isolated mouse liver mitochondria. In kind it is biochemical. In a few lines: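 Freshly isolated liver mitochondria from male C57BL6/N mice, suspension at 0.5 mg/mL as added, in substrate-free SAB with 1 μm Calcium Green-5N; compounds in 1:2 serial dilutions against 2% DMSO controls. Sequential 10 μm CaCl2 pulses every 2 min, extramitochondrial Ca2+ read at ex/em 485/535 nm.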

The nature of data set [2]: Plasma stability determination in mouse plasma. In kind it is in vitro ADME. As for the experimental part:
Plasma stability determination. The degradation of TR001 in the presence of mouse plasma (from Innovative Research) was used to predict the plasma stability of the compound to esterase catalyzed hydrolysis. A positive control for plasma cholinesterase, propantheline bromide, was included in all assays. Briefly, murine plasma was incubated with 1 μm TR001. Aliquots were removed at t=0, 5, 15, 30, and 60 and 120 min and quenched with acetonitrile containing structurally related compound (TR073) as the internal standard. The amount of TR001 remaining in the supernatant was assessed by LC-MS/MS in multiple reaction monitoring mode (MRM) using a 4000 QTRAP (SCIEX) with electrospray ionization source. The instrument was operated in negative mode with source parameters: source voltage […], GS1 50, GS2 50, CUR 30, TEM 650 and CAD gas MED. Optimal MRM transitions were obtained by direct infusion of the pure compound into the source. The mass spectrometer was interfaced to a Shimadzu (Columbia, MD) SIL-20AC XR auto-sampler maintained at 35° C. followed by 2 LC-20AD XR LC pumps. The internal standard and compound of interest were resolved using a Gemini-NX C18 50×2.1 mm column (Phenomenex) with 0.1% formic acid (solvent A) and 0.1% formic acid in acetonitrile (solvent B). The injection volume was 10 μL at a flow rate of 0.75 mL/min. The gradient elution was 10% B to 95% B over 5 min and held at 95% for 1 min before returning to start conditions. The column was maintained at 40° C. using a Shimadzu CTO-20AC column oven. Data were acquired using Analyst 1.6.2 and analyzed using Multiquant 3.0.1 software. The first-order rate constant for substrate depletion was determined from a linear least squares fit of the natural log of the percent parent compound remaining versus time. The rate constant was used to calculate the plasma half-life as an indicator of stability.

In data set [3] the test system is mtPTP. As to the kind of experiment: Ca2+ overload induced mitochondrial swelling in isolated mouse liver mitochondria. In kind it is biochemical. The following applies: isolated mouse liver mitochondria; average ± SEM, n = 3-41; read-out: Mitochondrial Swelling EC50. In outline:
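Liver mitochondria from 2–6-month male C57BL6/N mice (0.25 mg/mL protein) in sucrose buffer, pH 7.4, with glutamate/malate, challenged with CaCl2 at the preparation's swelling threshold (typically 50 μm) in presence of serially diluted compound. Swelling followed 30 min as absorbance decrease at 540 nm; EC50±SE by Hill fit, n=3-41 preparations.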

Take `Cc1ccc(Cl)cc1NC(=O)c1cn(-c2ccc(F)c(O)c2)nn1` [TR001, N-(5-chloro-2-methylphenyl)-1-(4-fluoro-3-hydroxyphenyl)-1H-1,2,3-triazole-4-carboxamide]: the “CRC effect in combination with CsA” value in the data set on mtPTP [1] (TR001 in combination with 2 μm CsA) is recorded as “additive with CsA”. In the data set with mtPTP [1] (compound treated CRC to DMSO treated CRC0 ratio, 1.25 μM, average ± SEM, n = 3-25), the “CRC/CRC0 at 1.25 μM” value is 6.8 ± 0.4. For the same compound, in the data set with mtPTP [1] (mouse liver mitochondria), the “maximal efficacy as defined by CRC/CRC0 ratio” value is recorded as roughly 10. Moreover, in data set [2] (TR001 vs 63), the “fold increase in plasma stability compared to 63” value was determined as 47 fold. Besides, the half-life at 1 µM in data set [2] (mouse, read-out: Mouse Plasma t1/2) is 16.5 h. Further, the EC50 in the data set on mtPTP [3] stood at 29 ± 8 nM.
